Data on 25 compounds can be found in patent US9598416B2, “Substituted benzothienyl-pyrrolotriazines and uses thereof in the treatment cancer” (Bayer Intellectual Property GmbH, priority 2011, dated 2017).

One assay deals with human FGFR-3 (Homo sapiens (Human), UniProt P22607). The assay is described as follows: FGFR-3 kinase assay (TR-FRET). It counts as biochemical. Particulars: 10 μM ATP; compounds of the invention. A general note: In TR-FRET formats the signal depends on donor and acceptor labels being close together.
In the next assay the target is human mTOR (Homo sapiens (Human), UniProt P42345). The assay is described as follows: mTOR kinase assay (TR-FRET, for comparative purposes). It counts as biochemical. Particulars: for inhibition at 1 µM: read-out: mTOR % inhibition @ 1 μM. An excerpt:
mTOR inhibitory activity of the compounds of the present invention was quantified employing the TR-FRET based mTOR assay as described in the following paragraphs: Recombinant fusion tagged mTOR protein [glutathione-S-transferase (GST) fused to human mTOR amino acids from 1360 to 2549], expressed in insect cells and purified by glutathione-sepharose affinity chromatography, was purchased from Invitrogen (Cat.-No. 4753) and used as enzyme. As substrate for the kinase reaction, a recombinant fusion protein of GFP and 4E-BP1 (purchased from Invitrogen, Cat.-No. PV4759) was used. Test compounds were dissolved in DMSO to generate 10 mM stock solutions. […] The resulting mixture was incubated for 1 h at 22° C. to allow formation of the complex between the phosphorylated substrate and the Tb-chelate labelled antibody. Subsequently, the amount of phosphorylated substrate was evaluated by measurement of the resonance energy transfer from the Tb-chelate to the GFP. For this, the fluorescence emissions at 495 nm and 520 nm after excitation at 340 nm was measured in an Envision 2104 multilabel reader (Perkin-Elmer). The ratio of the emissions at 520 nm and at 495 nm was taken as the measure for the amount of phosphorylated substrate.

Setting [1] is: 1 μM test compound, mean inhibition values.

SMILES strings stand for the structures. Where a name gives a salt, the structure may show the parent alone. Read-outs that look alike come from different tables or passages of the source.

Usually IC50 stands for the concentration needed to halve the response being measured. Usually inhibition stands for the relative decrease from the control value, in per cent.

Chain of human mTOR (P42345 1360-2549): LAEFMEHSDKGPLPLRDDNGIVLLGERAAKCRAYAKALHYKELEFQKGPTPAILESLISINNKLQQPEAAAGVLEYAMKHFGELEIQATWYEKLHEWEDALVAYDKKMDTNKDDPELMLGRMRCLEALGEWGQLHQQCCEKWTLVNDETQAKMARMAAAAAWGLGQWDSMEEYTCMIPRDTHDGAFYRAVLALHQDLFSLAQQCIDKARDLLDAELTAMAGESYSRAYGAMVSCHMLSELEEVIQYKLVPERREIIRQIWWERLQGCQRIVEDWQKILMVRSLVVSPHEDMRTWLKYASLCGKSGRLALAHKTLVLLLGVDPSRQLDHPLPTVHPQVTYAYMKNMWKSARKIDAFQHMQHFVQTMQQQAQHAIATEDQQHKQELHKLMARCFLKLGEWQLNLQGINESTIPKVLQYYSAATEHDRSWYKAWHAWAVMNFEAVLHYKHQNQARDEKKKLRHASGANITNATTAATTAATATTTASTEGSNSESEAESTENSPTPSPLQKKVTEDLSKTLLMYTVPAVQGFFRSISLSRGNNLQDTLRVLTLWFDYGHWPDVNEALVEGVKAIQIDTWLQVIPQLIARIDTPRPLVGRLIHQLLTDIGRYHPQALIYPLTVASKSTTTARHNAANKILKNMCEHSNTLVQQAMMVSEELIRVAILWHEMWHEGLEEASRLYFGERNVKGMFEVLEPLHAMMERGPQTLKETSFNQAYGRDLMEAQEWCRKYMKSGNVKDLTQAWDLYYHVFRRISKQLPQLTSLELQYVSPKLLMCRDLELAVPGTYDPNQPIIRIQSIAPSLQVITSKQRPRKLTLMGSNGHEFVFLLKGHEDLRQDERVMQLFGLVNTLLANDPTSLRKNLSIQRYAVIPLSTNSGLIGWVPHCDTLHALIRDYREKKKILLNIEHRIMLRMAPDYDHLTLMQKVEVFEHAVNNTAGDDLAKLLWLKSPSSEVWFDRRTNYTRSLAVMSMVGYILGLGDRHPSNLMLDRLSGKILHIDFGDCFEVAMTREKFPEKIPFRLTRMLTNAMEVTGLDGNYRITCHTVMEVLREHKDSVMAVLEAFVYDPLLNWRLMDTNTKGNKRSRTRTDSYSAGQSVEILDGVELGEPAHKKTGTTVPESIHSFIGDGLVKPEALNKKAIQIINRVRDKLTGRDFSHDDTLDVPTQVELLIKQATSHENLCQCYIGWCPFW
Chain of human FGFR-3 (P22607 397-806): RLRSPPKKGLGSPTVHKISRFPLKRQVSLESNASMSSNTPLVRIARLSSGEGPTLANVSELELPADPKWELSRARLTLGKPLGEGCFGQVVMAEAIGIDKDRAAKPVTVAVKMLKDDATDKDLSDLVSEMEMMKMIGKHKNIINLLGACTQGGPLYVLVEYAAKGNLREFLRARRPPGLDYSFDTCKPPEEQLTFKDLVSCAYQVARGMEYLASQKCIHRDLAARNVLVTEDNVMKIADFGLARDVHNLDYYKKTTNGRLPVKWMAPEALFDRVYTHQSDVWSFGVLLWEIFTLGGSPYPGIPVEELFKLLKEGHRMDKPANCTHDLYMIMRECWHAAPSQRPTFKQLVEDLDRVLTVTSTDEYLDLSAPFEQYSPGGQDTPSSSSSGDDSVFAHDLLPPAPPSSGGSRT

For the compound `Cc1ccc2sc(-c3c(CN4CCNC(=O)C4)cn4ncnc(N)c34)cc2c1` [Example 29, 4-{[4-Amino-5-(5-methyl-1-benzothiophen-2-yl)pyrrolo[2,1-f][1,2,4]triazin-6-yl]methyl}piperazin-2-one], the midpoint of inhibition at human FGFR-3, the IC50, lay at 18.7 nM. The inhibition at 1 µM on human mTOR (setting [1]) was found to be 0.6%.
At human FGFR-3, `COc1cc(C)cc2cc(-c3c(CN4CCCC4C(N)=O)cn4ncnc(N)c34)sc12` (racemic) [Example 19, rac-1-{[4-Amino-5-(7-methoxy-5-methyl-1-benzothiophen-2-yl)pyrrolo[2,1-f][1,2,4]triazin-6-yl]-methyl}prolinamide dihydrochloride] showed a half-maximal inhibitory concentration (IC50) of 11.2 nM. The inhibition at 1 µM on human mTOR was 1.8%.
In turn, `COc1cc(C)cc2cc(-c3c(CN4CCN(C(C)=O)CC4)cn4ncnc(N)c34)sc12` [Example 21, 1-(4-{[4-Amino-5-(7-methoxy-5-methyl-1-benzothiophen-2-yl)pyrrolo[2,1-f][1,2,4]triazin-6-yl]-methyl}piperazin-1-yl)ethanone] showed an IC50 at human FGFR-3 of 27.9 nM. The “mTOR % inhibition @ 1 μM” value at human mTOR (setting [1]) was “no inhib. effect detect”.
At human FGFR-3, `COc1cc(C)cc2cc(-c3c(COC[C@H](C)O)cn4ncnc(N)c34)sc12` [Example 2, (2S)-1-{[4-Amino-5-(7-methoxy-5-methyl-1-benzothiophen-2-yl)pyrrolo[2,1-f][1,2,4]triazin-6-yl]-methoxy}propan-2-ol] gave a half-inhibitory concentration (IC50) of 2.2 nM. Besides, the inhibition at 1 µM at human mTOR (setting [1]) amounted to 6.1%.
In turn, `COc1cc(C)cc2cc(-c3c(CNCC(C)(C)O)cn4ncnc(N)c34)sc12` [Example 17, 1-({[4-Amino-5-(7-methoxy-5-methyl-1-benzothiophen-2-yl)pyrrolo[2,1-f][1,2,4]triazin-6-yl]-methyl}amino)-2-methylpropan-2-ol dihydrochloride] yielded an IC50 on human FGFR-3 of 1.8 nM. Moreover, the “mTOR % inhibition @ 1 μM” value at human mTOR (setting [1]) was “no inhib. effect detect”.
At human FGFR-3, `CNC(=O)CNCc1cn2ncnc(N)c2c1-c1cc2cc(C)cc(OC)c2s1` [Example 13, N^2-{[4-Amino-5-(7-methoxy-5-methyl-1-benzothiophen-2-yl)pyrrolo[2,1-f][1,2,4]triazin-6-yl]-methyl}-N-methylglycinamide] had an IC50 of 15.1 nM. The inhibition at 1 µM at human mTOR (setting [1]) was determined as 5.3%.
Taken in the same sequence, the figures for `CCOCc1cn2ncnc(N)c2c1-c1cc2cc(C)cc(OC)c2s1` [Example 28, 6-(Ethoxymethyl)-5-(7-methoxy-5-methyl-1-benzothiophen-2-yl)pyrrolo[2,1-f][1,2,4]triazin-4-amine] were 14.2 nM and 35.5%.
In the same order, the values of `COc1cc(C)cc2cc(-c3c(COCC(N)=O)cn4ncnc(N)c34)sc12` [Example 6, 2-{[4-Amino-5-(7-methoxy-5-methyl-1-benzothiophen-2-yl)pyrrolo[2,1-f][1,2,4]triazin-6-yl]-methoxy}acetamide] are 4.4 nM and 11.3%.
In the same order, the values of `COc1cc(C)cc2cc(-c3c(CNCC(N)=O)cn4ncnc(N)c34)sc12` [Example 16, N^2-{[4-Amino-5-(7-methoxy-5-methyl-1-benzothiophen-2-yl)pyrrolo[2,1-f][1,2,4]triazin-6-yl]-methyl}glycinamide] are 2.3 nM and 8.8%.
Compound `COc1cc(C)cc2cc(-c3c(CN4CCNCC4)cn4ncnc(N)c34)sc12` [Example 25, 5-(7-Methoxy-5-methyl-1-benzothiophen-2-yl)-6-(piperazin-1-ylmethyl)pyrrolo[2,1-f][1,2,4]triazin-4-amine trihydrochloride] displayed an IC50 at human FGFR-3 of 0.4 nM. Further, the “mTOR % inhibition @ 1 μM” value at human mTOR (setting [1]) is on record as “no inhib. effect detect”.
Taken in the same sequence, the figures for `COc1cc(C)cc2cc(-c3c(CN4CCNC(=O)C4)cn4ncnc(N)c34)sc12` [Example 11, 4-{[4-Amino-5-(7-methoxy-5-methyl-1-benzothiophen-2-yl)pyrrolo[2,1-f][1,2,4]triazin-6-yl]-methyl}piperazin-2-one] were 0.4 nM and “no inhib. effect detect”.
`COc1cc(C)cc2cc(-c3c(COCCO)cn4ncnc(N)c34)sc12` [Example 7, 2-{[4-Amino-5-(7-methoxy-5-methyl-1-benzothiophen-2-yl)pyrrolo[2,1-f][1,2,4]triazin-6-yl]-methoxy}ethanol hydrochloride] yielded an IC50 on human FGFR-3 of 5.8 nM. Besides, the inhibition at 1 µM on human mTOR stood at 4.7%.
Regarding `COc1cccc2cc(-c3c(CN4CCNC(=O)C4)cn4ncnc(N)c34)sc12` [Example 30, 4-{[4-Amino-5-(7-methoxy-1-benzothiophen-2-yl)pyrrolo[2,1-f][1,2,4]triazin-6-yl]methyl}piperazin-2-one], the concentration for half-maximal inhibition (IC50) on human FGFR-3 is 3.1 nM. Moreover, the inhibition at 1 µM on human mTOR (setting [1]) amounted to 1.6%.
On to `CCOC(=O)CNCc1cn2ncnc(N)c2c1-c1cc2cc(C)cc(OC)c2s1` [Example 15, Ethyl N-{[4-amino-5-(7-methoxy-5-methyl-1-benzothiophen-2-yl)pyrrolo[2,1-f][1,2,4]triazin-6-yl]-methyl}glycinate dihydrochloride], for which the IC50 at human FGFR-3 was 87.1 nM. Moreover, the inhibition at 1 µM at human mTOR was determined as 4%.
Take `COc1cc(C)cc2cc(-c3c(CNCC(C)O)cn4ncnc(N)c34)sc12` (racemic) [Example 26, rac-1-({[4-Amino-5-(7-methoxy-5-methyl-1-benzothiophen-2-yl)pyrrolo[2,1-f][1,2,4]triazin-6-yl]-methyl}amino)propan-2-ol dihydrochloride]: the “mTOR % inhibition @ 1 μM” value at human mTOR (setting [1]) is “no inhib. effect detect”.
Regarding `COc1cc(C)cc2cc(-c3c(CN[C@H]4CCNC4=O)cn4ncnc(N)c34)sc12` [Example 27, (3S)-3-({[4-Amino-5-(7-methoxy-5-methyl-1-benzothiophen-2-yl)pyrrolo[2,1-f][1,2,4]triazin-6-yl]-methyl}amino)pyrrolidin-2-one dihydrochloride], the IC50 on human FGFR-3 was 0.5 nM. Moreover, the inhibition at 1 µM at human mTOR came out at 5%.
As for `COc1cc(C)cc2cc(-c3c(CO[C@@H](C)CO)cn4ncnc(N)c34)sc12` [Example 3, (2S)-2-{[4-Amino-5-(7-methoxy-5-methyl-1-benzothiophen-2-yl)pyrrolo[2,1-f][1,2,4]triazin-6-yl]-methoxy}propan-1-ol], it took 4.2 nM to reach half-maximal inhibition against human FGFR-3 (IC50). Further, at human mTOR (setting [1]), the inhibition at 1 µM is 2.5%.
For `COc1cc(C)cc2cc(-c3c(CO)cn4ncnc(N)c34)sc12` [Example 32, [4-Amino-5-(7-methoxy-5-methyl-1-benzothiophen-2-yl)pyrrolo[2,1-f][1,2,4]triazin-6-yl]methanol], the “mTOR % inhibition @ 1 μM” value at human mTOR (setting [1]) is on record as “no inhib. effect detect”.
Consider `COc1cc(C)cc2cc(-c3c(CN(C)CC(C)OC)cn4ncnc(N)c34)sc12` (centres unmarked) [Example 59], for which the IC50 against human FGFR-3 stood at 4 nM.
Same read-out and setting: in the case of `COc1cc(C)cc2cc(-c3c(CN4CCCC(N(C)C)C4)cn4ncnc(N)c34)sc12` (centres unmarked) [Example 67] it was 0.6 nM; in that of `COc1cc(C)cc2cc(-c3c(COCCN4CCCCC4)cn4ncnc(N)c34)sc12` [Example 44], 9.3 nM; in that of `COc1cc(C)cc2cc(-c3c(CN4CCS(=O)(=O)CC4)cn4ncnc(N)c34)sc12` [Example 77], 15.3 nM.
As to `COc1cc(C)cc2cc(-c3c(CNC4CCS(=O)(=O)C4)cn4ncnc(N)c34)sc12` (centres unmarked) [Example 72], at human FGFR-3, the half-maximal inhibitory concentration (IC50) stood at 5.5 nM.
The same measure, in the same setting: next, `COc1cc(C)cc2cc(-c3c(CN4CC[C@H](N(C)C)C4)cn4ncnc(N)c34)sc12` [Example 66]: 0.5 nM; `COc1cc(C)cc2cc(-c3c(CN4CC(OC)C4)cn4ncnc(N)c34)sc12` [Example 53]: 15.1 nM.
